Test results: ChEMBL document CHEMBL1153880, “Synthesis and adrenolytic activity of 1-(1H-indol-4-yloxy)-3-{[2-(2-methoxyphenoxy)ethyl]amino}propan-2-ol and its enantiomers. Part 1” (Eur J Med Chem, 2009)
The source made the active and inactive calls. The calls are words filed in the database; no cut-off is given here.

Columns and labels:
[1] = target: T1, Adrenergic receptor alpha-1 (Rattus norvegicus, UniProt P15823+P23944+P43140); experiment: Displacement of [3H]prazosin from alpha1 adrenergic receptor in rat cerebral cortex by liquid scintillation method; type: tissue-based
T1 sequence (P15823 whole entry): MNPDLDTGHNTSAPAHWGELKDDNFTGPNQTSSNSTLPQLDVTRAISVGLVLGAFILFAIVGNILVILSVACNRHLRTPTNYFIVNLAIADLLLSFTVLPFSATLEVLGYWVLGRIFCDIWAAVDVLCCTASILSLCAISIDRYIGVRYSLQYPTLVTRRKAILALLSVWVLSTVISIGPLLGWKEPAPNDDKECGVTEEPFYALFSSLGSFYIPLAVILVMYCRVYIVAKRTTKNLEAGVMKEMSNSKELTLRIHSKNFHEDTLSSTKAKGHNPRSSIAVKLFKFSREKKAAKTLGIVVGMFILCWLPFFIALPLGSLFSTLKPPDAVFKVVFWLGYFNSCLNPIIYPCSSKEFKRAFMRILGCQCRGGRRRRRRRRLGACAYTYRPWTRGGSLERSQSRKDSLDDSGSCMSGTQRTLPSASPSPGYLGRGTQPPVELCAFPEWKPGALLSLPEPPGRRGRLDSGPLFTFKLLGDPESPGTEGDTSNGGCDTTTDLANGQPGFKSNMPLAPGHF
T1 sequence (P23944 whole entry): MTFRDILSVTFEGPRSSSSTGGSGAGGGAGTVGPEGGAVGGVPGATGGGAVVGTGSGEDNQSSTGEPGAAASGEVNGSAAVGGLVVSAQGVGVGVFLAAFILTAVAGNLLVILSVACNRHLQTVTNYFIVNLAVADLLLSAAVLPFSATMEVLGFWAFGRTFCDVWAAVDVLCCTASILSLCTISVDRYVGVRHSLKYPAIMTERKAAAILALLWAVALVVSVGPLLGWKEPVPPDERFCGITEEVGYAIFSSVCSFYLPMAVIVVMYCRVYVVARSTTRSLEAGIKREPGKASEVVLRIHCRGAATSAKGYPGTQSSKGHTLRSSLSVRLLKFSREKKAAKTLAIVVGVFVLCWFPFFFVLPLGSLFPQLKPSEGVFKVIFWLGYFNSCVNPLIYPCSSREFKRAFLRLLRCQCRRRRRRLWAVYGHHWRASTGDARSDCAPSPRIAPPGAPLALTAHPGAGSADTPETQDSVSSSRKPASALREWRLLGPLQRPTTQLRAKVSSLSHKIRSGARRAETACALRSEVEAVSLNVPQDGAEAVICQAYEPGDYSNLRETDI
T1 sequence (P43140 whole entry): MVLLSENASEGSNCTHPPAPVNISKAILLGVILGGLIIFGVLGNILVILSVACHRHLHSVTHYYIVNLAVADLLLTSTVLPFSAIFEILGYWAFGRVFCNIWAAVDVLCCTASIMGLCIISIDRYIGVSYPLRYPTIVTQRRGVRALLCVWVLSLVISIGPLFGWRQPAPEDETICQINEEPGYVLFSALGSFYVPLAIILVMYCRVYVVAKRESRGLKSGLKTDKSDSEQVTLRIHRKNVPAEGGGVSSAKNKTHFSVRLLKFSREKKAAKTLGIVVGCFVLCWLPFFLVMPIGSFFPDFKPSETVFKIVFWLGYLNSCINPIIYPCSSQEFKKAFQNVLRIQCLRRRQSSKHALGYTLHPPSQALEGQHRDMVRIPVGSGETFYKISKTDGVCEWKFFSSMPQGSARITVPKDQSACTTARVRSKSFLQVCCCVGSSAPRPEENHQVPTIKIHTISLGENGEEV

[2] = test system: Rattus norvegicus; experiment: Effect on electrocardiogram in anaesthetized Wistar rat assessed as change in QRS interval at 1 mg/kg, iv after 1 min by electrocardiography; type: functional
[3] = test system: Rattus norvegicus; experiment: Effect on electrocardiogram in anaesthetized Wistar rat assessed as change in Q-T interval at 1 mg/kg, iv after 1 min by electrocardiography; type: functional
[4] = test system: Rattus norvegicus; experiment: Effect on electrocardiogram in anaesthetized Wistar rat assessed as change in QRS interval at 1 mg/kg, iv after 5 mins by electrocardiography; type: functional
[5] = test system: Rattus norvegicus; experiment: Effect on electrocardiogram in anaesthetized Wistar rat assessed as change in Q-T interval at 1 mg/kg, iv after 5 mins by electrocardiography; type: functional
[6] = test system: Rattus norvegicus; experiment: Effect on electrocardiogram in anaesthetized Wistar rat assessed as change in P-Q-interval at 1 mg/kg, iv after 15 mins by electrocardiography; type: functional
[7] = test system: Rattus norvegicus; experiment: Effect on electrocardiogram in anaesthetized Wistar rat assessed as change in QRS interval at 1 mg/kg, iv after 15 mins by electrocardiography; type: functional
[8] = test system: Rattus norvegicus; experiment: Effect on electrocardiogram in anaesthetized Wistar rat assessed as change in Q-T interval at 1 mg/kg, iv after 15 mins by electrocardiography; type: functional
[9] = test system: Rattus norvegicus; experiment: Antiarrhythmic activity against adrenaline-induced arrhythmia in iv dosed anaesthetized Wistar rat assessed as inhibition of premature ventricular beats pretreated 60 mins prior to adrenaline challenge; type: functional; conditions: Heart
[10] = test system: Rattus norvegicus; experiment: Hypotensive activity in anaesthetized normotensive Wistar rat assessed as decrease in systolic pressure at 0.125 to 1 mg/kg, iv administered as single dose after 5 mins; type: functional; design: scale not given: the % may be the effect or the level left; conditions: dose mg/kg 0.125-1
[11] = test system: Rattus norvegicus; experiment: Hypotensive activity in anaesthetized normotensive Wistar rat assessed as decrease in diastolic pressure at 0.125 to 1 mg/kg, iv administered as single dose after 5 mins; type: functional; design: scale not given: the % may be the effect or the level left; conditions: dose mg/kg 0.125-1
[12] = test system: Rattus norvegicus; experiment: Hypotensive activity in anaesthetized normotensive Wistar rat assessed as decrease in systolic pressure at 0.625 mg/kg, iv administered as single dose after 5 mins; type: functional; design: scale not given: the % may be the effect or the level left
[13] = test system: Rattus norvegicus; experiment: Hypotensive activity in anaesthetized normotensive Wistar rat assessed as decrease in diastolic pressure at 0.625 mg/kg, iv administered as single dose after 5 mins; type: functional; design: scale not given: the % may be the effect or the level left
[14] = test system: Rattus norvegicus; experiment: Hypotensive activity in anaesthetized normotensive Wistar rat assessed as reduction in norepinephrine induced pressor response at 1 mg/kg, iv after 5 mins; type: functional, organism-based; design: dose 1 mg/kg
[15] = test system: Rattus norvegicus; experiment: Hypotensive activity in anaesthetized normotensive Wistar rat assessed as reduction in epinephrine-induced pressor response at 1 mg/kg, iv after 5 mins; type: functional, organism-based; design: dose 1 mg/kg
[16] = test system: Rattus norvegicus; experiment: Hypotensive activity in anaesthetized normotensive Wistar rat assessed as decrease in systolic pressure at 0.25 to 1 mg/kg, iv administered as single dose after 5 mins; type: functional; design: scale not given: the % may be the effect or the level left; conditions: dose mg/kg 0.25-1
[17] = test system: Rattus norvegicus; experiment: Hypotensive activity in anaesthetized normotensive Wistar rat assessed as decrease in diastolic pressure at 0.25 to 1 mg/kg, iv administered as single dose after 5 mins; type: functional; design: scale not given: the % may be the effect or the level left; conditions: dose mg/kg 0.25-1
[18] = test system: Rattus norvegicus; experiment: Hypotensive activity in anaesthetized normotensive Wistar rat assessed as decrease in systolic pressure at 0.125 to 1 mg/kg, po administered as single dose after 5 mins; type: functional, organism-based
[19] = test system: Rattus norvegicus; experiment: Hypotensive activity in anaesthetized normotensive Wistar rat assessed as decrease in diastolic pressure at 0.125 to 1 mg/kg, po administered as single dose after 5 mins; type: functional, organism-based
[20] = Decrease in amplitude of contraction in rabbit intestine at 10 uM after 5 mins; type: functional, Oryctolagus cuniculus; design: scale not given: the % may be the effect or the level left
[21] = test system: Rattus norvegicus; experiment: Hypotensive activity in po dosed anaesthetized normotensive Wistar rat assessed as decrease in systolic pressure administered as single dose after 5 mins; type: functional, organism-based
[22] = test system: Rattus norvegicus; experiment: Hypotensive activity in po dosed anaesthetized normotensive Wistar rat assessed as decrease in diastolic pressure administered as single dose after 5 mins; type: functional, organism-based

SMILES	Ki [1] [nM]	Activity [2] [ms]	Activity [3] [ms]	Activity [4] [ms]	Activity [5] [ms]	Activity [6] [ms]	Activity [7] [ms]	Activity [8] [ms]	ED50 [9] [mg/kg]	Activity [14]	Activity [15]	Activity [20] [%]	other results
COc1ccccc1OCCNC[C@H](O)COc1cccc2[nH]ccc12	56.7	24.3	72.3	24.3	76.3	48	22.7	72	0.059	Active	Active		Activity [10]: 15%; Activity [11]: 14%; Activity [12]: 8%; Activity [13]: 8%
COc1ccccc1OCCNCC(O)COc1cccc2[nH]ccc12 (racemic)	89.8	28.4	69.2	24.9	69	46.2	26.9	72.8	0.34	Active	Active	29	Activity [16]: 10%; Activity [17]: 10%; Activity [18]: Active; Activity [19]: Active
COc1ccccc1OCCNC[C@@H](O)COc1cccc2[nH]ccc12	88.3	22.3	63	21.7	66	51.7	21.7	62.8	0.43		Active	31	Activity [21]: inactive; Activity [22]: inactive
